Laboratory results reported in patent US7745589B1, “Antibodies and unnatural substrates of prenylation enzymes for use in detecting and isolating prenylated proteins” (University of Kentucky Research Foundation, priority 2005, dated 2010).

What was measured:
[1] = tested on: HEK-cells; assay: AGOH incorporation into unblocked cells; format: cell-based, human; conditions: 30 μM AGOH, no lovastatin blockade
Description: Plates are coated with poly-L-Lysine and seeded with HEK-cells in Dulbecco's modified Eagle's medium with 5% fetal bovine serum. The cells ware then treated with DMSO as a vehicle, or 30 μM AGOH 5a is then added and incubated at 37° C. for the indicated time points. Medium is then removed and cells are extracted into 300 μL PBS containing Protease Inhibitor cocktail set 1 (Calbiochem). The samples are sonicated and centrifuged for 5 minutes. The supernatant is removed and used for western blotting.
Cells are harvested by scraping into 300 μl phosphate buffered saline containing protease inhibitor cocktail set 1 (calbiochem), followed by sonication on ice. Protein concentration is determined using a Bradford reagent kit (Pierce). The proteins from the FTase reaction mixtures or cell lysates are then separated using 12% SDS-polyacrylamide gels followed by transfer to nitrocellulose membranes. The membranes are incubated in blocking buffer PCT (see ELISA) for one hour at room temperature, after which the following steps are used: incubation with Anti-AG 1:1000 to 1:10,000 in PCT for one hour; 3×15 minute washes with vigorous shaking in PT buffer (see ELISA); incubation at room temperature one hour with goat anti-rabbit horseradish peroxidase-conjugated secondary antibody (Zymed) at a dilution of 1:20,000 in PCT buffer; and four 15 minute washes with PT buffer. […]

[2] = tested on: human embryonic kidney (HEK-293) cells; assay: Acute cytoxicity of anilinogeraniol in HEK-293 cells; format: cell-based; conditions: up to 100 μM, three days, relative to controls
Source text: Farnesol, geranylgeraniol and a number of farnesol analogues become incorporated into cellular proteins when added to the culture media of growing cells. See e.g., Crick, et al. (1995) Biochem Biophys Res Commun 211, 590-9; Crick, et al. (1997) Biochem Biophys Res Commun 237, 483-7. These compounds are thought to traverse the plasma membrane and act as a substrate for sequential kinase reactions to give FPP, GGPP or the diphosphate analogue which can be then be utilized by FTase or GGTaseI to appropriately modify cellular proteins. Thai, et al. (1999) Proc Natl Acad Sci U S A 96, 13080-5. The kinases involved in the phosphorylation reactions have been characterized in plants, but not in mammalian cells. […] See Chehade, et al. (2000) J. Org. Chem. 65, […]. It is thought that nilinogeraniol might also cross the plasma membrane of cells, be converted to the diphosphate and become incorporated into proteins by FTase. However, it is also possible that anilinogeraniol might be toxic to mammalian cells. Accordingly, the acute cytoxicity of anilinogeraniol is examined by incubating human embryonic kidney (HEK-293) cells with up to 100 μM anilinogeraniol for three days.

[3] = tested on: HEK-293 cells; assay: AGOH labeling and FTI inhibition of label in HEK-293 cells; format: cell-based, human
Description: Plates are coated with poly-L-Lysine and seeded with HEK-cells in Dulbecco's modified Eagle's medium with 5% fetal bovine serum. Cells are incubated in medium containing 30 μM lovostatin and 10 μM GGOH for 24 hrs. The media is poured off then replenished with media without lovostatin and GGOH and are treated with 3 μM FTI-277 (calbiochem), 20 μM GGTI-2147 (calbiochem) or no inhibitor and incubated at 37° C. for 1 hour. DMSO as a vehicle, or 100 μM AGOH is then added and incubated at 37° C. for two hours. Medium is then removed and cells are extracted into 300 μL PBS containing Protease Inhibitor cocktail set 1 (Calbiochem). The samples are sonicated and centrifuged for 5 minutes. The supernatant is removed and used for western blotting.
Cells are harvested by scraping into 300 μl phosphate buffered saline containing protease inhibitor cocktail set 1 (calbiochem), followed by sonication on ice. Protein concentration is determined using a Bradford reagent kit (Pierce). The proteins from the FTase reaction mixtures or cell lysates are then separated using 12% SDS-polyacrylamide gels followed by transfer to nitrocellulose membranes. […]

[4] = target: T1, FTase (Homo sapiens, UniProt P49354+P49356); conditions: in vitro; cited from earlier work
[5] = target: T1, FTase; assay: FTase catalyzed in vitro modification of RDJ2 and H-Ras; format: biochemical; conditions: bacterially expressed proteins, intact Ca1a2X motifs
Description: 2 μg of recombinant bacterially expressed RDJ2 is incubated with 20 μM AGPP or FPP and 5 μg FTase in 50 μL of TrisHCl buffer (pH=7.4). […] The reactions are incubated for 30 min at 37° C., boiled with SDS and PAGE performed using the protein concentrations indicated on the blots.

[6] = tested on: anti-AG antibody; assay: Western analysis of H-Ras modified by FTase with aniline analogs, probed with Anti-AG; format: binding, rabbits; conditions: H-Ras reacted with analog by FTase, FIG. 11A
Description: Cells are harvested by scraping into 300 μl phosphate buffered saline containing protease inhibitor cocktail set 1 (calbiochem), followed by sonication on ice. Protein concentration is determined using a Bradford reagent kit (Pierce). The proteins from the FTase reaction mixtures or cell lysates are then separated using 12% SDS-polyacrylamide gels followed by transfer to nitrocellulose membranes. The membranes are incubated in blocking buffer PCT (see ELISA) for one hour at room temperature, after which the following steps are used: incubation with Anti-AG 1:1000 to 1:10,000 in PCT for one hour; 3×15 minute washes with vigorous shaking in PT buffer (see ELISA); incubation at room temperature one hour with goat anti-rabbit horseradish peroxidase-conjugated secondary antibody (Zymed) at a dilution of 1:20,000 in PCT buffer; and four 15 minute washes with PT buffer. The membranes are then subjected to enhanced chemiluminescence detection by incubation in 20 mL of detection buffer (Pierce Super Signal) for one minute.

[7] = tested on: anti-NAG antibodies; assay: Western analysis of H-Ras modified by FTase with aniline analogs, probed with Anti-NAG; format: binding, rabbits; conditions: H-Ras reacted with analog by FTase, FIG. 11B
[8] = target: GGTaseI (Homo sapiens, UniProt P49354+P53609); assay: GGTaseI continuous spectrofluorometric assay with dansylated-GCaaX peptides; format: biochemical; conditions: for Substrate for GGTaseI with CVIL peptide: dansylated-GCVIL peptide; for Substrate for GGTaseI with CVIM peptide: dansylated-GCVIM peptide; for Substrate for GGTaseI: peptide not specified
Description: The kinetic constants Km^peptide and kcat with GGPP, and the analogs with each peptide are determined in triplicate measurements using a continuous spectrofluorometric assay adapted for a 96-well plate. The following assay components are assembled in individual wells of a 96-well plate and incubated at 30° C. for 20 minutes: 180 μL of assay butler (52 mM Tris-HCl, 12 mM MgCl2, 12 μM ZnCl2 pH 7.4), 40 μL of detergent (0.125% n-dodecyl-β-D-maltoside in assay buffer), 40 μL of reducing agent (50 mM DTT in assay buffer) 20 μL of GGPP or analog (200 μM in 25 mM NH4HCO3) and 20 μL of N-dansyl-GCaaX peptide (variable concentration). Fluorescence is detected using a time based scan at 30° C. for 120 minutes. The velocity of each reaction is determined by converting the rate of increase in fluorescence intensity units (FLU/s) to μM/s with equation 1. vi=(R·P)/(FMAX−FMIN) Equation 1
Where vi is the velocity of the reaction in μM/s. R is the rate of the reaction in FLU/s. P is equal to the concentration of modified product in μM (see below). FMAX is the fluorescence intensity of fully modified product. FMIN is the fluorescence of a reaction mixture that contained 20 μL of assay buffer in the place of GGTaseI. Complete modification of peptides is assumed when fluorescence stabilized for more than 10 minutes and is confirmed by RP-HPLC analysis of the reaction mixture.
Final analysis peptide concentrations are chosen based on preliminary determination of the Km^peptide with 0.5, 1, 5 and 10 μM dansyl-GCaaX concentrations (see below). The final analysis used 8 peptide concentrations which are: ⅙, ⅕, ¼, ½, ¾, 1, 2, and 3 times the estimated Km^peptide. The reaction is then initiated by the addition of 20 μL of GGTaseI (final 10 nM). Fluorescence enhancement is determined as described above.
Complete modification of peptides is assumed when fluorescence stabilized for more than 10 minutes and is confirmed by RP-HPLC analysis of the reaction mixture. […] Alternatively the extent of input peptide modified is determined by RP-HPLC analysis of the dansyl moiety peak absorbance corresponding to the unmodified and modified peptides. The percent of modified peptide relative to the total input peptide is used to calculate the concentration of product in the mixture.
The velocities of the reactions are plotted against the concentration of peptide and are fit to the Michaelis-Menten equation (Equation 2) to give the apparent kcat (appkcat) and Km^peptide (appKmpeptide) values. Where et is the total enzyme concentration and [Pep] is the total input peptide. The kcat/Km^peptide value is derived from a Lineweaver-Burke plot of the same data points. vi/et=(appkcat*[Pep])/(appKm^peptide+[Pep]) Equation 2

[9] = tested on: GGTaseI; assay: GGTaseI protein substrate modification of H-Ras; format: biochemical; conditions: relatively large amount of GGTaseI, Western blot FIG. 17A
[10] = tested on: H460 (lung cancer cell line) and MCF7 (breast cancer cell line) cells; assay: Cell labeling with AFOH; format: cell-based; conditions: 30 μM AFOH overnight, FIG. 17B
Description: Plates are coated with poly-L-Lysine and seeded with in Dulbecco's modified Eagle's medium with 5% fetal bovine serum. The cells are then treated with DMSO as a vehicle, or 30 μM AFOH is added and incubated at 37° C. overnight. Medium is then removed and cells are extracted into 500 μL of RIPA buffer containing Protease Inhibitor cocktail I (calbiochem). The supernatant is removed and used for western blotting.
Protein concentration is determined using a Bradford reagent kit (Pierce) with 1:100 dilutions of the cell lysates. The proteins from the GGTaseI reaction mixtures or cell lysates are then separated using 12% SDS-polyacrylamide gels followed by transfer to nitrocellulose membranes. The membranes are incubated in blocking buffer PBS Casein and Tween buffer for one hour at room temperature, after which the following sequential steps are used: incubation with anti-AG or anti-NAG to 1:10,000 in PCT for one hour; 3×15 minute washes with vigorous shaking in PBS Tween buffer; incubation at room temperature one hour with goat anti-rabbit horseradish peroxidase-conjugated secondary antibody (Zymed) at a dilution of 1:20,000 in PCT buffer; and four 15 minute washes with PT buffer. The membranes are then subjected to enhanced chemiluminescene detection by incubation in 20 mL of detection buffer (Pierce Super Signal) for one minute.

C/C(=C\CO)CC/C=C(\C)CNc1ccccc1 [AGOH, Anilinogeranyl alcohol]
Competition with endogenous pools of FPP [1]: competitive with the endogenous pools of FPP
Onset of anilinogeranyl incorporation into proteins ([1]; FIG. 14): within two hours
Cell growth [2]: no decrease in cell growth
Morphological changes [2]: no morphological changes
Anilinogeranyl modified proteins detected with Anti-AG in cell extracts ([3]; cells blocked with lovostatin and treated with GGOH, 100 μM AGOH, FIG. 12): numerous anilinogeranyl modified proteins

C/C(=C\COP(=O)(O)OP(=O)(O)O)CC/C=C(\C)CNc1ccccc1 [AGPP, anilinogeranyl diphosphate]
Transferable by FTase to a CVLS substrate [4]: transferable
FTase catalyzed in vitro modification of RDJ2 and Q61L H-Ras [5]: provided lipid thioether-linked proteins

meta-bromo-anilinogeranyl diphosphate [mBr-AGPP]
Recognition of analog-modified H-Ras by anti-AG antibody [6]: able to cross-react

C/C(=C\COP(=O)(O)OP(=O)(O)O)CC/C=C(\C)CNc1ccc([N+](=O)[O-])cc1 [NAGPP, para-nitro-anilinogeranyl diphosphate]
FTase catalyzed in vitro modification of RDJ2 and Q61L H-Ras [5]: provided lipid thioether-linked proteins

para-methyl-anilinogeranyl diphosphate [pMe-AGPP]
Recognition of analog-modified H-Ras by anti-AG antibody [6]: able to cross-react

para-bromo-anilinogeranyl diphosphate [pBr-AGPP]
Recognition of analog-modified H-Ras by anti-NAG antibodies [7]: recognized
Recognition of analog-modified H-Ras by anti-AG antibody [6]: able to cross-react

ortho-fluoro-anilinogeranyl diphosphate [oF-AGPP]
Recognition of analog-modified H-Ras by anti-AG antibody [6]: able to cross-react

CC(C)=CCC/C(C)=C/CC/C(C)=C/CC/C(C)=C/COP(=O)(O)OP(=O)(O)O [GGPP, geranylgeranyl diphosphate, reference compound]
Substrate for GGTaseI with CVIL peptide [8]: confirmed to be a substrate
Substrate for GGTaseI with CVIM peptide [8]: confirmed to be a substrate

meta-methyl-anilinogeranyl diphosphate [mMe-AGPP]
Recognition of analog-modified H-Ras by anti-AG antibody [6]: able to cross-react

meta-fluoro-anilinogeranyl diphosphate [mF-AGPP]
Recognition of analog-modified H-Ras by anti-AG antibody [6]: able to cross-react

COC(=O)[C@H](CCSC)NC(=O)c1ccc(NC[C@@H](N)CS)cc1-c1ccccc1 [FTI-277, reference compound]
Effect of inhibitor on anilinogeranyl modification of cellular proteins ([3]; cells incubated with AGOH, 3 μM FTI-277 or 20 μM GGTI-2147): no anilinogeranyl modified proteins are detected

CC(=CCCC(C)=CCOP(=O)(O)OP(=O)(O)O)CCC=C(C)CNc1ccc([N+](=O)[O-])cc1 [NAFPP, pNO2-anilinofarnesyl diphosphate]
Substrate for GGTaseI with CVIL peptide [8]: are substrates when CVIL is the target
Substrate for GGTaseI with CVIM peptide [8]: none of the AGPP analogs or NAFPP are substrates
Substrate for GGTaseI [8]: both substrates
Incorporation of analog into H-Ras in vitro [9]: incorporated into the protein

anilinofarnesyl diphosphate [AFPP]
Substrate for GGTaseI [8]: both substrates
Incorporation of analog into H-Ras in vitro [9]: incorporated into the protein

para-cyano-anilinogeranyl diphosphate [pCN-AGPP]
Recognition of analog-modified H-Ras by anti-NAG antibodies [7]: recognized

CC(=CCC/C(C)=C/COP(=O)(O)OP(=O)(O)O)CNc1ccc(F)cc1 [pF-AGPP, para-fluoro-anilinogeraniol diphosphate]
Recognition of analog-modified H-Ras by anti-AG antibody [6]: able to cross-react

CC(=CCO)CCC=C(C)CCC=C(C)CNc1ccccc1 [AFOH, Anilinofarnesiol]
AFOH incorporation into cellular proteins [10]: does appear to be incorporated into proteins

meta-cyano-anilinogeranyl diphosphate [mCN-AGPP]
Recognition of analog-modified H-Ras by anti-NAG antibodies [7]: recognized
Recognition of analog-modified H-Ras by anti-AG antibody [6]: able to cross-react
